Assay results taken from ChEMBL document CHEMBL4184098, “Discovery of novel benzo[b]thiophene tetrazoles as non-carboxylate GPR40 agonists” (Bioorg Med Chem Lett, 2018).

Experiments:
[1] = Cmax in rat at 10 mg/kg, po; assay type: ADME, organism-based; parameters: dose 10 mg/kg, route oral; details: in vivo
[2] = Volume of distribution at steady state in rat at 10 mg/kg, po or 2 mg/kg, iv; assay type: ADME, organism-based; details: in vivo, read-out: Vdss
[3] = Oral bioavailability in rat at 10 mg/kg; assay type: ADME, organism-based; details: in vivo
[4] = Retention time of compound by LC-MS/MS analysis; assay type: physicochemical
[5] = Plasma concentration in Sprague-Dawley rat at 1 mg/kg, po administered 40 mins prior to glucose-challenge measured at 160 mins post last dose during OGTT assay; assay type: ADME, organism-based
[6] = Plasma concentration in Sprague-Dawley rat at 10 mg/kg, po administered 40 mins prior to glucose-challenge measured at 160 mins post last dose during OGTT assay; assay type: ADME, organism-based
[7] = Plasma concentration in Sprague-Dawley rat at 10 mg/kg, po administered 40 mins prior to glucose-challenge measured at 155 mins post last dose during OGTT assay; assay type: ADME, organism-based
[8] = Plasma concentration in Sprague-Dawley rat at 10 mg/kg, po administered 40 mins prior to glucose-challenge measured at 95 mins post last dose during OGTT assay; assay type: ADME, organism-based
[9] = Plasma concentration in Sprague-Dawley rat at 10 mg/kg, po administered 40 mins prior to glucose-challenge measured at 35 mins post last dose during OGTT assay; assay type: ADME, organism-based

Cmax [1] [ng/mL] | Vd [2] [L/kg] | bioavailability [3] [%] | Retention_time [4] [min] | concentration at 160 min [5] [µM] | concentration at 160 min [6] [µM] | concentration at 155 min [7] [µM] | concentration at 95 min [8] [µM] | concentration at 35 min [9] [µM] | Structure (SMILES)
417 | 5.1 | 56.8 | – | – | – | – | – | – | CC#C[C@@H](Cc1nnn[nH]1)c1ccc(OCc2ccc3scc(-c4ccc(OCCCS(C)(=O)=O)cc4C)c3c2)cc1
576 | 1.5 | 43.2 | 26.64 | 0.32 | 1.85 | – | – | – | CC#C[C@@H](Cc1nnn[nH]1)c1ccc(OCc2ccc3scc(-c4ccccc4C)c3c2)cc1
– | – | – | – | – | – | 4.41 | 3.9 | 5.66 | CC#C[C@@H](Cc1nnn[nH]1)c1ccc(OCc2ccc3sc(C(F)(F)F)c(-c4ccc(OCCOC)cc4C)c3c2)cc1
356 | 5.9 | 50.3 | – | – | – | – | – | – | CC#C[C@@H](Cc1nnn[nH]1)c1ccc(OCc2ccc3scc(-c4ccc(OCC5(C)CS(=O)(=O)C5)cc4C)c3c2)cc1
1590 | 2.2 | 62.3 | – | – | 3.74 | – | – | – | CC#C[C@@H](Cc1nnn[nH]1)c1ccc(OCc2ccc3sc(F)c(-c4ccccc4C)c3c2)cc1
4220 | 0.8 | 72 | – | – | 8.09 | – | – | – | CC#C[C@@H](Cc1nnn[nH]1)c1ccc(OCc2ccc3sc(Cl)c(-c4ccccc4C)c3c2)cc1
2520 | 1.1 | 82.1 | – | – | 7.42 | – | – | – | CC#C[C@@H](Cc1nnn[nH]1)c1ccc(OCc2ccc3sc(C(F)(F)F)c(-c4ccccc4C)c3c2)cc1
